Source: ChEMBL document CHEMBL4396934, “Novel α,β-unsaturated hydroxamic acid derivatives overcome cisplatin resistance” (Bioorg Med Chem, 2019)
Active and inactive are the calls of the source. No cut-off for these calls is given here.

What was measured:
Histone deacetylase [1] = experiment: Inhibition of HDAC in human A2780 cells using Boc-Lys(epsilon-Ac)-AMC as substrate preincubated for 18 hrs followed by substrate addition and further incubation for 3 hrs by microplate reader based fluorescence assay; type: cell-based
CAL-27 [2] = experiment: Antiproliferative activity against human CAL27 cells after 72 hrs by microplate reader based MTT assay; type: functional, cell-based; conditions: CAL-27, 72 h
A2780 = experiment: Antiproliferative activity against human A2780 cells after 72 hrs by microplate reader based MTT assay; type: functional, cell-based; conditions: A2780, 72 h
Histone deacetylase [3] = experiment: Inhibition of HDAC in human CAL27 cells using Boc-Lys(epsilon-Ac)-AMC as substrate preincubated for 18 hrs followed by substrate addition and further incubation for 3 hrs by microplate reader based fluorescence assay; type: cell-based
Homo sapiens [4] = organism: Homo sapiens; experiment: (§1) Potentiation of cisplatin-induced apoptosis in human Cal27CisR cells assessed as caspase-3/7 activity at 1 uM preincubated for 48 hrs followed by cisplatin addition and further incubation for 24 hrs treated with 20 uM pan capsase inhibitor QVD for 30 mins prior to compound addition by CellEvent caspase 3/7 green detection reagent/Hoechst 33342 staining based arrayscan analysis; type: functional, cell-based
CAL-27 [5] = experiment: as §1, with “CAL27” for “Cal27CisR”, “0.5” for “1”; type: functional, cell-based
Homo sapiens [6] = organism: Homo sapiens; experiment: (§2) Potentiation of cisplatin-induced apoptosis in human Cal27CisR cells assessed as increase in caspase-3/7 activation at 1 uM preincubated for 48 hrs followed by cisplatin addition and further incubation for 24 hrs by CellEvent caspase 3/7 green detection reagent/Hoechst 33342 staining based arrayscan analysis; type: functional, cell-based
CAL-27 [7] = experiment: as §2, with “CAL27” for “Cal27CisR”, “0.5” for “1”; type: functional, cell-based
Homo sapiens [8] = organism: Homo sapiens; experiment: Induction of apoptosis in human Cal27CisR cells assessed as increase in caspase-3/7 activation at 1 uM after 48 hrs by CellEvent caspase 3/7 green detection reagent/Hoechst 33342 staining based arrayscan analysis; type: functional, cell-based
CAL-27 [9] = experiment: Induction of apoptosis in human CAL27 cells assessed as caspase-3/7 activity at 0.5 uM after 48 hrs by CellEvent caspase 3/7 green detection reagent/Hoechst 33342 staining based arrayscan analysis; type: functional, cell-based
[10] = Potentiation of cisplatin-induced apoptosis in human Cal27CisR cells assessed as accumulation at sub-G1 phase at 1 uM preincubated for 48 hrs followed by cisplatin addition and further incubation for 24 hrs by propidium iodide staining based flow cytometry (reference value: 8.3 +/- 1.06%); type: functional
CAL-27 [11] = experiment: Potentiation of cisplatin-induced apoptosis in human CAL27 cells assessed as increase in accumulation at sub-G1 phase at 0.5 uM preincubated for 48 hrs followed by cisplatin addition and further incubation for 24 hrs by propidium iodide staining based flow cytometry relative to cisplatin alone; type: functional
CAL-27 [12] = experiment: Potentiation of cisplatin-induced apoptosis in human CAL27 cells assessed as accumulation at sub-G1 phase at 0.5 uM preincubated for 48 hrs followed by cisplatin addition and further incubation for 24 hrs by propidium iodide staining based flow cytometry (reference value: 11.5 +/- 0.89%); type: functional
CAL-27 [13] = experiment: Induction of apoptosis in human CAL27 cells assessed as accumulation at sub-G1 phase at 0.5 uM after 48 hrs by propidium iodide staining based flow cytometry; type: functional, cell-based
[14] = Potentiation of cisplatin-induced apoptosis in human Cal27CisR cells assessed as increase in accumulation at sub-G1 phase at 1 uM preincubated for 48 hrs followed by cisplatin addition and further incubation for 24 hrs by propidium iodide staining based flow cytometry relative to cisplatin alone; type: functional
Homo sapiens [15] = organism: Homo sapiens; experiment: Induction of apoptosis in human Cal27CisR cells assessed as accumulation at sub-G1 phase at 1 uM after 48 hrs by propidium iodide staining based flow cytometry; type: functional, cell-based
[16] = Potentiation of cisplatin-induced cytotoxicity in human Cal27CisR cells assessed as fold reduction in cisplatin IC50 at 1 uM preincubated for 48 hrs followed by cisplatin addition and further incubation for 72 hrs by MTT assay relative to cisplatin alone; type: functional
CAL-27 [17] = experiment: Potentiation of cisplatin-induced cytotoxicity in human CAL27 cells assessed as fold reduction in cisplatin IC50 at 0.5 uM preincubated for 48 hrs followed by cisplatin addition and further incubation for 72 hrs by MTT assay relative to cisplatin alone; type: functional
Histone deacetylase 8 = molecular target: T1, Histone deacetylase 8 (Homo sapiens, UniProt Q9BY41); experiment: Inhibition of C-terminal His-fusion tagged/N-terminal Strep-2 tagged recombinant human HDAC8 (1 to 377 residues) expressed in insect cells using Boc-Lys(TFa)-AMC as substrate preincubated for 5 mins followed by substrate addition and further incubation for 90 mins measured after 15 mins by microplate reader based fluorescence assay
T1 sequence (Q9BY41 whole entry): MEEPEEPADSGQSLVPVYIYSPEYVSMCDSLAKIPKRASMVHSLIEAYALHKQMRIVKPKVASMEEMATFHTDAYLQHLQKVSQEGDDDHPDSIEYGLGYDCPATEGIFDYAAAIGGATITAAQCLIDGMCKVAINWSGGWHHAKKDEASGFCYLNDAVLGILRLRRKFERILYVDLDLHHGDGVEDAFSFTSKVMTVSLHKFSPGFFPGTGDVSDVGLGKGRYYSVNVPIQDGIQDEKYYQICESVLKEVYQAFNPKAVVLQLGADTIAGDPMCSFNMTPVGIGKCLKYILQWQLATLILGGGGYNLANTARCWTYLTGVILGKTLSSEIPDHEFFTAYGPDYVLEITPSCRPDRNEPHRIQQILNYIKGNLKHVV

[18] = molecular target: T2, Protein deacetylase HDAC6 (Homo sapiens, UniProt Q9UBN7); experiment: (§3) Inhibition of N-terminal GST-tagged recombinant human HDAC6 (1 to 1215 residues) expressed in Baculovirus infected insect cells using Boc-Lys(Ac)-AMC as substrate preincubated for 5 mins followed by substrate addition and further incubation for 90 mins measured after 15 mins by microplate reader based fluorescence assay
T2 sequence (Q9UBN7 whole entry): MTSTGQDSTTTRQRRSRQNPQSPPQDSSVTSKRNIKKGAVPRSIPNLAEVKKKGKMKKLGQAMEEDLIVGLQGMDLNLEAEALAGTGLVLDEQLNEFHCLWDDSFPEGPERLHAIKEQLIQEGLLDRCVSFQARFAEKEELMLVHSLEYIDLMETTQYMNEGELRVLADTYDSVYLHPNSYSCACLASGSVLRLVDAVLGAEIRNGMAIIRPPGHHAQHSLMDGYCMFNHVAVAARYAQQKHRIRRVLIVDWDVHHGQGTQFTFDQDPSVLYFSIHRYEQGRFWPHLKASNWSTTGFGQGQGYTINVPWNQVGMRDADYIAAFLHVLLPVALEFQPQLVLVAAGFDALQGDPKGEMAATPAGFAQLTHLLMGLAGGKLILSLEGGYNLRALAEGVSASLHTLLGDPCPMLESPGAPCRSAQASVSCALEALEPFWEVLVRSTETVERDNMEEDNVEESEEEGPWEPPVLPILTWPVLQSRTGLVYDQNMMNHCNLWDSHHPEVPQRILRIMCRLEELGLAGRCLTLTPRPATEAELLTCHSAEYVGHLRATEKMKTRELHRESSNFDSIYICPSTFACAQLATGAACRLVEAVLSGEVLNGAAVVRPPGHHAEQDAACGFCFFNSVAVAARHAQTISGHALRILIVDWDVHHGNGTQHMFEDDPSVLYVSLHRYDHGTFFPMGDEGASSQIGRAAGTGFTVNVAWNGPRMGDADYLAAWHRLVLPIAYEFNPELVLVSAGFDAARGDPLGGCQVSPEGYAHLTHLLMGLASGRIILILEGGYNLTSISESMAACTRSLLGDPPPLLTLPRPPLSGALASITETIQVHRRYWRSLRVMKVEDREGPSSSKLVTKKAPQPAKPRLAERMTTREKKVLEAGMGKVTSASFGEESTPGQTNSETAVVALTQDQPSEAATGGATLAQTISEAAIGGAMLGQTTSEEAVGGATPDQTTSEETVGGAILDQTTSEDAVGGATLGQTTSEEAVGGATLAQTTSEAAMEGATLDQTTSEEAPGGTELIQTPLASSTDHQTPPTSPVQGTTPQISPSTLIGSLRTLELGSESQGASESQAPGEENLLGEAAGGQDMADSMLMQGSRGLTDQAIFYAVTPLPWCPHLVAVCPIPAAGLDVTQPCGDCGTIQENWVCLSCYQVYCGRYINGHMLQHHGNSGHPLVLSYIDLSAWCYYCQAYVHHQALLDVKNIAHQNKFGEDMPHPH

Histone deacetylase 4 = Histone deacetylase 4 (Homo sapiens, UniProt P56524); experiment: as §3, with “C-terminal His-tagged/N-terminal” for “N-terminal”, “HDAC4 (627” for “HDAC6 (1”, “1084” for “1215”, “Boc-Lys(TFa)-AMC” for “Boc-Lys(Ac)-AMC”
Chain of Histone deacetylase 4 (P56524 whole entry): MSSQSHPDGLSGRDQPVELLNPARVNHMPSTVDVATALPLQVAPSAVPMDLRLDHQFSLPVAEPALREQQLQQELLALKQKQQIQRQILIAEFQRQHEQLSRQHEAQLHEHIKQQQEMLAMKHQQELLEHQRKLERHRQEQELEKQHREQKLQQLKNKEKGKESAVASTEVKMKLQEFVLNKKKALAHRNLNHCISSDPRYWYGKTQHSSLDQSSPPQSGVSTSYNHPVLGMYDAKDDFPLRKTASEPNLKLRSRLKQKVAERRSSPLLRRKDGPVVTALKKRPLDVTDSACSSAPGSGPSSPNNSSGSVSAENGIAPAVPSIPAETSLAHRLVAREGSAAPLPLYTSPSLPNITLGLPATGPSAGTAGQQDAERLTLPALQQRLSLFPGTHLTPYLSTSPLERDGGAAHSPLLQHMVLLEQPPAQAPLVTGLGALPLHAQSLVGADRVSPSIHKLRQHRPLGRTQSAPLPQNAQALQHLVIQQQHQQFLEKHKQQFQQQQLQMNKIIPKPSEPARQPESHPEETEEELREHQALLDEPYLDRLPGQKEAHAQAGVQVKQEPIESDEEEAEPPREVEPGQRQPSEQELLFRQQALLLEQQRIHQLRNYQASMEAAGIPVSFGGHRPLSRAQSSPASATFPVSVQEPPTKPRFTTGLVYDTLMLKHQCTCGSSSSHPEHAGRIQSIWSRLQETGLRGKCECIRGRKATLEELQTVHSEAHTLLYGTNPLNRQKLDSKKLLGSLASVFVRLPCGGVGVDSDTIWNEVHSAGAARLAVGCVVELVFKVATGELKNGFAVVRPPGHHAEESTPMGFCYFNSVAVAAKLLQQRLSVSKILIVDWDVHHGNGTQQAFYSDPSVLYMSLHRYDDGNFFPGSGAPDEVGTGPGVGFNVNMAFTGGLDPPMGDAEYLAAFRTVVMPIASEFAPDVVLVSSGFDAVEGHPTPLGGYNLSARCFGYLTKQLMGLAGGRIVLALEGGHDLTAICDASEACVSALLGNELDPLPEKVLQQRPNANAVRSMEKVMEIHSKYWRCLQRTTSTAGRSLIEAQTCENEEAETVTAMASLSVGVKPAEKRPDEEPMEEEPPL

Histone deacetylase 2 = Histone deacetylase 2 (Homo sapiens, UniProt Q92769); experiment: biochemical; type: cell-based
Chain of Histone deacetylase 2 (Q92769 whole entry): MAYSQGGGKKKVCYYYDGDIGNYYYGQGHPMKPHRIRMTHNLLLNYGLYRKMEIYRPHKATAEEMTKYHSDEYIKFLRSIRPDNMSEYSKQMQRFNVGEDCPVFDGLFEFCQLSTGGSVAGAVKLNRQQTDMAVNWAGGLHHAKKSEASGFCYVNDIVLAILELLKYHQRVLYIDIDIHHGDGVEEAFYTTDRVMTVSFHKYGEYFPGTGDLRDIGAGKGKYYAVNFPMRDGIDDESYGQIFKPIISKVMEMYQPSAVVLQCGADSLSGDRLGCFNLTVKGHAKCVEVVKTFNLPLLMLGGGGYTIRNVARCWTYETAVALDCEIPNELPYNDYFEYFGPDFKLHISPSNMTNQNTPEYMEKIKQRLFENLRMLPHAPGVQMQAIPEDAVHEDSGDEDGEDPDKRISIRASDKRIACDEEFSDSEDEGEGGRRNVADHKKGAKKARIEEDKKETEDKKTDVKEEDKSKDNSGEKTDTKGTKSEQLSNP

Row | IC50 (Histone deacetylase [1]) | IC50 (A2780) | IC50 (Histone deacetylase [3]) | Compound | IC50 (CAL-27 [2]) | further results
1 | 6.85 µM | 38.6 µM | 3.14 µM | COc1cc(C(=O)NOCc2ccc(/C=C/C(=O)NO)cc2)cc(OC)c1OC | 8.94 µM | 
2 | 4.03 µM | 3.57 µM | 5.65 µM | O=C(/C=C/c1ccc(CONC(=O)Nc2ccccc2-c2ccccc2)cc1)NO | 2.62 µM | 
3 | 1.98 µM | 3.15 µM | 4.48 µM | O=C(/C=C/c1ccc(CONC(=O)c2nccc3ccccc23)cc1)NO | 4.21 µM | 
4 | 1.54 µM | 0.79 µM | 0.27 µM | O=C(/C=C/c1ccc(CONC(=O)c2ccc3ccccc3n2)cc1)NO | 0.8 µM | Activity (Homo sapiens [4]): inactive; Activity (CAL-27 [5]): inactive; Activity (Homo sapiens [6]): Active; Activity (CAL-27 [7]): Active; Activity (Homo sapiens [8]): Active; Activity (CAL-27 [9]): inactive; Activity [10]: 38.9%; fold change (FC) (CAL-27 [11]): 3; Activity (CAL-27 [12]): 34.5%; Activity (CAL-27 [13]): inactive; fold change (FC) [14]: 4.7; Activity (Homo sapiens [15]): inactive; Ratio IC50 [16]: 6.86; Ratio IC50 (CAL-27 [17]): 5.69; Ki (Histone deacetylase 8): 4.7 µM; Ki [18]: 0.1 µM; Ki (Histone deacetylase 4): 9.54 µM; Ki (Histone deacetylase 2): 0.07 µM
5 | 190 µM | 112 µM | 144 µM | O=C(/C=C/c1ccc(CONC(=O)Nc2ccccc2)cc1)NO | 62 µM | 
6 | 2.29 µM | 3.39 µM | 4.21 µM | Cc1cc(C)c(NC(=O)NOCc2ccc(/C=C/C(=O)NO)cc2)c(C)c1 | 3.49 µM | 
7 | 0.94 µM | 2.08 µM | 1.16 µM | O=C(/C=C/c1ccc(CONC(=O)c2ccccc2)cc1)NO | 2.99 µM | 
8 | 43.2 µM | 38.9 µM | 40.3 µM | O=C(/C=C/c1ccc(CONC(=O)Nc2cccc3ccccc23)cc1)NO | 34.1 µM | 
9 | 1.12 µM | 14 µM | 2.65 µM | Cc1[nH]c2ccccc2c1CC(=O)NOCc1ccc(/C=C/C(=O)NO)cc1 | 5.25 µM | 
10 | 0.57 µM | 1.15 µM | 0.49 µM | COc1ccc(NC(=O)NOCc2ccc(/C=C/C(=O)NO)cc2)cc1 | 1.7 µM | Activity (Homo sapiens [4]): inactive; Activity (CAL-27 [5]): inactive; Activity (Homo sapiens [6]): Active; Activity (CAL-27 [7]): Active; Activity (Homo sapiens [8]): Active; Activity (CAL-27 [9]): inactive; Activity [10]: 52.2%; fold change (FC) (CAL-27 [11]): 3; Activity (CAL-27 [12]): 36.7%; Activity (CAL-27 [13]): inactive; fold change (FC) [14]: 6; Activity (Homo sapiens [15]): inactive; Ratio IC50 [16]: 4.76; Ratio IC50 (CAL-27 [17]): 2.95; Ki (Histone deacetylase 8): 4.21 µM; Ki [18]: 0.12 µM; Ki (Histone deacetylase 4): 25.2 µM; Ki (Histone deacetylase 2): 0.15 µM
11 |  | 0.0548 µM |  | Cc1[nH]c2ccccc2c1CCNCc1ccc(/C=C/C(=O)NO)cc1 [PANOBINOSTAT] | 0.0109 µM | 
12 | 19.2 µM | 2.02 µM | 11.6 µM | O=C(/C=C/c1ccc(CONC(=O)c2csc(-c3ccccc3)n2)cc1)NO | 16.3 µM | 
13 | 3.34 µM | 4.55 µM | 4.81 µM | CC(C(=O)NOCc1ccc(/C=C/C(=O)NO)cc1)(c1ccccc1)c1ccccc1 | 5.71 µM | 
14 | 0.9 µM | 2.33 µM | 1.09 µM | Cc1cc(C)cc(C(=O)NOCc2ccc(/C=C/C(=O)NO)cc2)c1 | 2.24 µM | 
15 | 7.6 µM | 1.7 µM | 3 µM | CCCCOc1ccc(C(=O)NOCc2ccc(/C=C/C(=O)NO)cc2)cc1 | 4.55 µM | 
16 | 6.85 µM | 35.4 µM | 14.2 µM | CCNC(=O)NOCc1ccc(/C=C/C(=O)NO)cc1 | 14 µM | 
17 | 1.92 µM | 3.11 µM | 2.83 µM | O=C(/C=C/c1ccc(CONC(=O)c2ccc3ccccc3c2)cc1)NO | 3.65 µM | 
18 | 1.54 µM | 2.01 µM | 1.12 µM | Cc1cc(C)cc(NC(=O)NOCc2ccc(/C=C/C(=O)NO)cc2)c1 | 2.27 µM | 
